Reference: PubChem BioAssay AID248 (DTP/NCI, 2004)
Toxic doses and inconclusive results are not listed. Rule as the data show it: active = T/C of 150% or more; inactive = T/C below 125%.

System: L1210 leukemia ip in BDF1 mice, survival T/C
Assay: NCI In Vivo Anticancer Drug Screen. Data for tumor model L1210 Leukemia (intraperitoneal) in B6D2F1 (BDF1) mice
Details: endpoint: mean survival time, higher = longer survival
Outline: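 In this screen, tumor-bearing mice given compound are compared to those given vehicle, and their survival values are reported as a treated-to-control quotient.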

[1] = dose: 100.0 mg/kg/injection, schedule: Q04DX003 (ip), vehicle: saline
[2] = dose: 100.0 mg/kg/injection, schedule: Q01DX001 (ip), vehicle: saline
[3] = dose: 200.0 mg/kg/injection, schedule: Q01DX001 (ip), vehicle: saline
[4] = dose: 400.0 mg/kg/injection, schedule: Q01DX001 (ip), vehicle: saline
[5] = dose: 50.0 mg/kg/injection, schedule: Q01DX009 (ip), vehicle: saline with Tween-80
[6] = dose: 100.0 mg/kg/injection, schedule: Q01DX009 (ip), vehicle: saline with Tween-80
[7] = dose: 200.0 mg/kg/injection, schedule: Q01DX009 (ip), vehicle: saline with Tween-80
[8] = dose: 100.0 mg/kg/injection, schedule: Q01DX001 (ip), vehicle: carboxymethylcellulose (CMC)
[9] = dose: 200.0 mg/kg/injection, schedule: Q01DX001 (ip), vehicle: carboxymethylcellulose (CMC)
[10] = dose: 400.0 mg/kg/injection, schedule: Q01DX001 (ip), vehicle: carboxymethylcellulose (CMC)
[11] = dose: 100.0 mg/kg/injection, schedule: Q04DX003 (ip), vehicle: saline with Tween-80
[12] = dose: 200.0 mg/kg/injection, schedule: Q04DX003 (ip), vehicle: saline with Tween-80
[13] = dose: 400.0 mg/kg/injection, schedule: Q01DX009 (ip), vehicle: saline with Tween-80
[14] = dose: 400.0 mg/kg/injection, schedule: Q04DX003 (ip), vehicle: saline with Tween-80
[15] = dose: 100.0 mg/kg/injection, schedule: Q01DX009 (ip), vehicle: saline
[16] = dose: 200.0 mg/kg/injection, schedule: Q01DX009 (ip), vehicle: saline
[17] = dose: 200.0 mg/kg/injection, schedule: Q04DX003 (ip), vehicle: saline
[18] = dose: 400.0 mg/kg/injection, schedule: Q01DX009 (ip), vehicle: saline
[19] = dose: 400.0 mg/kg/injection, schedule: Q04DX003 (ip), vehicle: saline

Measured: T/C

CCN(CC)CCOc1ccccc1C(C)C
inactive: dose: 20.0 mg/kg/injection, schedule: Q04DX003 (ip), vehicle: saline 118 % of control | dose: 40.0 mg/kg/injection, schedule: Q04DX003 (ip), vehicle: saline 97 % of control | dose: 80.0 mg/kg/injection, schedule: Q04DX003 (ip), vehicle: saline 94 % of control | [1] 101 % of control

CN(C)Cc1ccc(N)cc1
inactive: dose: 10.0 mg/kg/injection, schedule: Q01DX009 (ip), vehicle: water 107 % of control | dose: 20.0 mg/kg/injection, schedule: Q01DX009 (ip), vehicle: water 105 % of control | dose: 40.0 mg/kg/injection, schedule: Q01DX009 (ip), vehicle: water 107 % of control | dose: 50.0 mg/kg/injection, schedule: Q01DX009 (ip), vehicle: water 91 % of control | dose: 80.0 mg/kg/injection, schedule: Q01DX009 (ip), vehicle: water 96 % of control | dose: 100.0 mg/kg/injection, schedule: Q01DX009 (ip), vehicle: water 88 % of control | dose: 100.0 mg/kg/injection, schedule: Q04DX003 (ip), vehicle: water 100 % of control | dose: 200.0 mg/kg/injection, schedule: Q04DX003 (ip), vehicle: water 102 % of control

CN(C)/N=C/c1nccc2ccccc12
inactive: dose: 50.0 mg/kg/injection, schedule: Q01DX001 (ip), vehicle: saline 98 % of control | [2] 93 % of control | [3] 93 % of control

COc1cc2c(cc1OC)-c1c(=O)c3cc(OC)c(OC)cc3n([O-])[n+]1CC2
inactive: [2] 93 % of control | [3] 94 % of control | [4] 89 % of control

COc1ccc(P(=S)(S)c2ccc(OC)cc2)cc1
inactive: dose: 100.0 mg/kg/injection, schedule: Q04DX003 (ip), vehicle: acetone 94 % of control | dose: 200.0 mg/kg/injection, schedule: Q04DX003 (ip), vehicle: acetone 100 % of control | dose: 400.0 mg/kg/injection, schedule: Q04DX003 (ip), vehicle: acetone 90 % of control

CC(=O)NC1CCCCC1c1ccc(C2CCCCC2NC(C)=O)cc1 (centres undefined)
inactive: [2] 98 % of control | [3] 98 % of control

CC(C)=CCc1ccc(Cl)cc1
inactive: [5] 94 % of control | [6] 105 % of control | [7] 102 % of control

O=[N+]([O-])c1c[nH]c2ncnc(SCc3ccccc3)c12
inactive: [8] 87 % of control | [9] 93 % of control | [10] 91 % of control

COc1cccc2c1CCC1C2CCC2(O)CC(=O)CCC12C (centres undefined)
inactive: dose: 100.0 mg/kg/injection, schedule: Q04DX003 (sc), vehicle: steriod suspending solution 115 % of control | dose: 200.0 mg/kg/injection, schedule: Q04DX003 (sc), vehicle: steriod suspending solution 113 % of control | dose: 400.0 mg/kg/injection, schedule: Q04DX003 (sc), vehicle: steriod suspending solution 113 % of control

O=C1NC(=O)C(c2ccc(C(F)(F)F)cc2)(c2ccc(C(F)(F)F)cc2)N1
inactive: [6] 98 % of control | [11] 92 % of control | [7] 90 % of control | [12] 96 % of control | [13] 86 % of control | [14] 89 % of control

C/C=C/C=N/NC(=O)c1ccc(OC)cc1
inactive: dose: 100.0 mg/kg/injection, schedule: Q01DX009 (ip), vehicle: Klucel (hydroxypropylcellulose) (HPC) 102 % of control | dose: 200.0 mg/kg/injection, schedule: Q01DX009 (ip), vehicle: Klucel (hydroxypropylcellulose) (HPC) 86 % of control

CC(C)=CCc1ccc(O)cc1
inactive: dose: 100.0 mg/kg/injection, schedule: Q01DX009 (ip), vehicle: saline + alcohol 95 % of control | dose: 100.0 mg/kg/injection, schedule: Q04DX003 (ip), vehicle: Klucel (hydroxypropylcellulose) (HPC) 96 % of control | dose: 200.0 mg/kg/injection, schedule: Q04DX003 (ip), vehicle: Klucel (hydroxypropylcellulose) (HPC) 100 % of control | dose: 400.0 mg/kg/injection, schedule: Q04DX003 (ip), vehicle: Klucel (hydroxypropylcellulose) (HPC) 95 % of control

CCC1CC2CCC(c3cc4c(cc3OC)N(C)C3C(O)(C(=O)OC)C(OC(C)=O)C5(CC)C=CCN6CCC43C65)c3[nH]c4ccccc4c3CCN(C1)C2 (centres undefined)
inactive: dose: 0.8 mg/kg/injection, schedule: Q01DX001 (ip), vehicle: saline 97 % of control | dose: 1.6 mg/kg/injection, schedule: Q01DX001 (ip), vehicle: saline 97 % of control | dose: 3.2 mg/kg/injection, schedule: Q01DX001 (ip), vehicle: saline 97 % of control | dose: 6.4 mg/kg/injection, schedule: Q01DX001 (ip), vehicle: saline 100 % of control

CC(=O)NCCc1ccc(S(=O)(=O)F)cc1
inactive: [6] 91 % of control | [7] 102 % of control

C1=Cc2ccccc2/C1=C/c1ccc(/C=C2\C=Cc3ccccc32)cc1
inactive: [11] 92 % of control | [12] 89 % of control | [14] 89 % of control

Cc1ccc(S(=O)(=O)NCC(=O)NCCC#N)cc1
inactive: dose: 100.0 mg/kg/injection, schedule: Q01DX001 (ip), vehicle: Klucel (hydroxypropylcellulose) (HPC) 103 % of control | dose: 200.0 mg/kg/injection, schedule: Q01DX001 (ip), vehicle: Klucel (hydroxypropylcellulose) (HPC) 97 % of control | dose: 400.0 mg/kg/injection, schedule: Q01DX001 (ip), vehicle: Klucel (hydroxypropylcellulose) (HPC) 92 % of control

COc1ccc(C(=O)C(O)O)cc1
inactive: [15] 100 % of control | [1] 103 % of control | [16] 96 % of control | [17] 98 % of control | [18] 112 % of control | [19] 103 % of control

O=C1C/C(=C\c2ccccc2O)C(=O)c2ccccc21
inactive: dose: 10.0 mg/kg/injection, schedule: Q04DX002 (ip), vehicle: Klucel (hydroxypropylcellulose) (HPC) 101 % of control | dose: 20.0 mg/kg/injection, schedule: Q04DX002 (ip), vehicle: Klucel (hydroxypropylcellulose) (HPC) 93 % of control | dose: 40.0 mg/kg/injection, schedule: Q04DX002 (ip), vehicle: Klucel (hydroxypropylcellulose) (HPC) 101 % of control

S=C(S)NNc1ccccc1
inactive: dose: 25.0 mg/kg/injection, schedule: Q04DX003 (ip), vehicle: saline with Tween-80 104 % of control | [5] 86 % of control | dose: 50.0 mg/kg/injection, schedule: Q04DX003 (ip), vehicle: saline with Tween-80 109 % of control | [6] 86 % of control | [11] 109 % of control

CC(=O)Nc1cc2[nH]c(=O)c3ccccc3c2cc1Cl
inactive: [8] 100 % of control | [9] 105 % of control | [10] 93 % of control

COc1cc(Nc2nc(Cl)ncc2[N+](=O)[O-])cc(OC)c1OC
inactive: [11] 90 % of control | [12] 92 % of control | [14] 92 % of control

Cc1cc(C)c(C(=O)O)c(C)c1
inactive: [2] 100 % of control | [6] 93 % of control | [3] 96 % of control | [7] 94 % of control | [4] 96 % of control | [13] 94 % of control

COC(=O)c1ccc(COc2ccc([N+](=O)[O-])cc2Cl)cc1
inactive: dose: 100.0 mg/kg/injection, schedule: Q01DX009 (ip), vehicle: saline sonified 94 % of control | [11] 96 % of control | dose: 200.0 mg/kg/injection, schedule: Q01DX009 (ip), vehicle: saline sonified 96 % of control | [12] 94 % of control | dose: 400.0 mg/kg/injection, schedule: Q01DX009 (ip), vehicle: saline sonified 94 % of control | [14] 96 % of control

CC(=O)OCCC/C(=C\c1cccc([N+](=O)[O-])c1)[N+](=O)[O-]
inactive: dose: 100.0 mg/kg/injection, schedule: Q01DX001 (ip), vehicle: other 111 % of control

CN(C)/C=N/NC(=O)c1ccncc1
inactive: [15] 94 % of control | [1] 88 % of control | [16] 97 % of control | [17] 100 % of control | [18] 108 % of control | [19] 96 % of control

CN=C(c1ccc(NC(=O)c2ccc(C(=O)Nc3ccc(C(=NC)N(C)C)cc3)cc2)cc1)N(C)C
inactive: dose: 0.94 mg/kg/injection, schedule: Q01DX Z (ip), vehicle: saline 94 % of control | dose: 1.88 mg/kg/injection, schedule: Q01DX Z (ip), vehicle: saline 101 % of control | dose: 3.75 mg/kg/injection, schedule: Q01DX Z (ip), vehicle: saline 97 % of control | dose: 7.5 mg/kg/injection, schedule: Q01DX Z (ip), vehicle: saline 111 % of control
